Like-named read-outs stand apart in the source and are kept apart here.
How the values were obtained:
[1] = system: pSTAT5; assay: Phosphoflow, G-CSF-induced pSTAT5 in Kasumi-1 cells; assay type: cell-based; conditions: mean, n ≥ 2, read-out: Ligand Induced Phosphorylation (Phosphoflow) pSTAT5 (G-CSF) IC50
Description: (§1) Phosphoflow analysis was done as described in Xu et al. Briefly, Kasumi-1 cells, were serum-starved, pre-treated with compound or DMSO (1 hour, RT) and then stimulated with 20 μl of GCSF (10 ng/ml) for 15 minutes at 37°C. The cells were then permeabilized and stained with Alexa647-pSTAT3, Alexa488-pSTAT5 and PE-pSTAT1 antibodies and analyzed using the BD LSR2. FCS files were exported and uploaded to Cytobank for determination of phosphoproteins as earlier. Gating was done on live, single cells and then gates selected for positive ligand-activated pSTAT3 and pSTAT1. IC50 values were calculated using the GraphPad Prism.

[2] = biological target: T1, pSTAT1 (Tyr-701) (Homo sapiens, UniProt P42224); assay: Phosphoflow, IFN-γ-induced pSTAT1 in Kasumi-1 cells; assay type: cell-based; conditions: Figure 2C, Kasumi-1; read-out: Phosphoflow pSTAT1 (Tyr-701) IC50, representative experiment
T1 construct: endogenous in cells; host or cells: Kasumi-1
T1 sequence (P42224 1-750): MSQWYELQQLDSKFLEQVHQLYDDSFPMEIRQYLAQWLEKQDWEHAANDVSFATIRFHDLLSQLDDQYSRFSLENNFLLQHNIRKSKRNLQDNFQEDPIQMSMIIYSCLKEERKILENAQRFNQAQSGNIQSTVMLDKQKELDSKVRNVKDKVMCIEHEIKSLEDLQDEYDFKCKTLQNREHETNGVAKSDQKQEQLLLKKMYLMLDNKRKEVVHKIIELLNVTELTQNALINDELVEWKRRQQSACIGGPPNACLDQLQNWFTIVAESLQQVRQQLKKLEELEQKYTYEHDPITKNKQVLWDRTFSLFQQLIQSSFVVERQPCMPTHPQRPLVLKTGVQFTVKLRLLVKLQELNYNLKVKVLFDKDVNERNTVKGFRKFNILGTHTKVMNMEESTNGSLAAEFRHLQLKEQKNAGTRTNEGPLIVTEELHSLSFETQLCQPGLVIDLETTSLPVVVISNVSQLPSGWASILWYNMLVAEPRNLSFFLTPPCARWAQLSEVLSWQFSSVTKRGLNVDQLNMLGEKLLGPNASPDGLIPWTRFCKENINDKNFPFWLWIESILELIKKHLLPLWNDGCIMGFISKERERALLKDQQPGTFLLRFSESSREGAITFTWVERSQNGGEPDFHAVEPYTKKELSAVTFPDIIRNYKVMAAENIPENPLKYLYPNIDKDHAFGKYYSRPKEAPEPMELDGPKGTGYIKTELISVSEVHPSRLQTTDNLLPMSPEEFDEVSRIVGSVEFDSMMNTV
Description: The equilibrium binding levels obtained ± compound were normalized (resonance obtained in the presence of compound ÷ the resonance obtained in the absence of compound × 100) and plotted against Log [nM] […] B. Inhibition of ligand-stimulated STAT phosphorylation, measured by phosphoflow. Serum-starved (1 hour) Kasumi-1 cells, pre-incubated with compound/DMSO (1 hour), were treated with G-CSF (10 ng/ml, 15 min, left two panels) or IFN-γ (10ng/ml, 15 min, right panel). Cells were permeabilized and stained with Alexa647-pSTAT3, and PE-pSTAT1 antibodies and analyzed on BD LSR2. FCS files were uploaded to Cytobank for pSTAT3 and pSTAT1 quantitation. Histograms depicting pSTAT3 and pSTAT1 levels are shown. C. Mean fluorescence (pSTAT3/1) levels were plotted as function the Log [M] compound, and IC50 calculated using GraphPad. […] D. Inhibition of ligand-stimulated STAT phosphorylation, measured by Luminex. Serum-starved (1 hour) Kasumi-1 cells, pre-incubated with compound/DMSO (0/0.1/0.3/1/3/10/100 μM, 1 hour), were treated with G-CSF (10 ng/ml, 15′). Total protein extracts of cells were assayed for pSTAT3, pSTAT1, and GAPDH levels by Luminex. GAPDH-normalized pSTAT3 or pSTAT1 values were divided by this ratio for untreated cells and expressed in percentage. These values were plotted as a function of Log [M] compound, and IC50 values calculated using GraphPad.
as §1

[3] = biological target: T1, pSTAT1 (Tyr-701); assay: Luminex bead-based assay, G-CSF-induced pSTAT1 in Kasumi-1 cells; assay type: cell-based; conditions: Figure 2D, Kasumi-1, G-CSF; read-out: Luminex pSTAT1 (Tyr-701) IC50, representative experiment
Description: The equilibrium binding levels obtained ± compound were normalized (resonance obtained in the presence of compound ÷ the resonance obtained in the absence of compound × 100) and plotted against Log [nM] […] B. Inhibition of ligand-stimulated STAT phosphorylation, measured by phosphoflow. Serum-starved (1 hour) Kasumi-1 cells, pre-incubated with compound/DMSO (1 hour), were treated with G-CSF (10 ng/ml, 15 min, left two panels) or IFN-γ (10ng/ml, 15 min, right panel). Cells were permeabilized and stained with Alexa647-pSTAT3, and PE-pSTAT1 antibodies and analyzed on BD LSR2. FCS files were uploaded to Cytobank for pSTAT3 and pSTAT1 quantitation. Histograms depicting pSTAT3 and pSTAT1 levels are shown. C. Mean fluorescence (pSTAT3/1) levels were plotted as function the Log [M] compound, and IC50 calculated using GraphPad. […] D. Inhibition of ligand-stimulated STAT phosphorylation, measured by Luminex. Serum-starved (1 hour) Kasumi-1 cells, pre-incubated with compound/DMSO (0/0.1/0.3/1/3/10/100 μM, 1 hour), were treated with G-CSF (10 ng/ml, 15′). Total protein extracts of cells were assayed for pSTAT3, pSTAT1, and GAPDH levels by Luminex. […] These values were plotted as a function of Log [M] compound, and IC50 values calculated using GraphPad. […]
for analysis as described below. were determined by plotting % maximum response as a 3-D pharmacophore generation function of log concentration of compound and fitting the Each molecular chemical feature, including experimental points to a competitive binding model using hydrogen bond donor, hydrogen bond acceptor, positive a four parameter logistic equation: R = Rhigh − (Rhigh − R low)/ (1 + conc/A1)^A2, where R = percent response at and negative ionizable group, and hydrophobic region, inhibitor concentration, R = percent response with no was generated using the LigandScout application compound, R= percent response at highest compound high framework and projected into 3-D space. concentration, A2 = fitting parameter (slope) and A1 = low Feature-pairing IC50 (BIAevaluation Software version 4.1). […]

[4] = system: UM-SCC-17B cells; assay: Anchorage dependent growth (MTT); assay type: cell-based; conditions: Homo sapiens, 48 hrs
Description: GAPDH-normalized pSTAT3 or pSTAT1 values were divided by that for untreated cells and expressed in percentage. These values were plotted as a function of Log [M] compound, and IC50 values calculated using GraphPad. […] Viable cells quantitated using MTT. Relative % viability was measured by (viability after any treatment ÷ viability of untreated cells × 100) and plotted as a function of Log [M] […] C. […] Representative curves are shown.
Cells were cultured in triplicates in complete DMEM ± drug, in ultra-low attachment 96 well plates for 72 hrs or cell-culture treated plates for 48 hrs and viable cells were quantitated using MTT. Optical density (OD) was measured at 590 nm using a 96-well multi-scanner (EL-800 universal microplate reader, BioTek Inc, VT, USA). Relative % viability (viability after any treatment ÷ viability of untreated cells × 100) was plotted along Y-axis. At least 2 replicates experiments were performed and were used for IC50 calculation using GraphPad software.

[5] = system: UM-SCC-17B xenografts; assay: UM-SCC-17B tumor xenograft growth in nude mice; assay type: in vivo; conditions: IP 5 times a week, 50 mg/kg/day
Description: (§2) Tumor volumes were measured twice weekly.
as §2

[6] = system: MB-MDA-468; conditions: MB-MDA-468 in vitro; read-out: Apoptosis EC50; cited from earlier work
[7] = Maximum tolerated dose in mice; conditions: mouse, in vivo
[8] = biological target: pSTAT3 (Homo sapiens, UniProt P40763); assay: pSTAT3 levels in UM-SCC-17B tumor xenografts (immunoblot); conditions: UM-SCC-17B xenografts, C188 50 mg/kg/day
pSTAT3, sequence (P40763 whole entry): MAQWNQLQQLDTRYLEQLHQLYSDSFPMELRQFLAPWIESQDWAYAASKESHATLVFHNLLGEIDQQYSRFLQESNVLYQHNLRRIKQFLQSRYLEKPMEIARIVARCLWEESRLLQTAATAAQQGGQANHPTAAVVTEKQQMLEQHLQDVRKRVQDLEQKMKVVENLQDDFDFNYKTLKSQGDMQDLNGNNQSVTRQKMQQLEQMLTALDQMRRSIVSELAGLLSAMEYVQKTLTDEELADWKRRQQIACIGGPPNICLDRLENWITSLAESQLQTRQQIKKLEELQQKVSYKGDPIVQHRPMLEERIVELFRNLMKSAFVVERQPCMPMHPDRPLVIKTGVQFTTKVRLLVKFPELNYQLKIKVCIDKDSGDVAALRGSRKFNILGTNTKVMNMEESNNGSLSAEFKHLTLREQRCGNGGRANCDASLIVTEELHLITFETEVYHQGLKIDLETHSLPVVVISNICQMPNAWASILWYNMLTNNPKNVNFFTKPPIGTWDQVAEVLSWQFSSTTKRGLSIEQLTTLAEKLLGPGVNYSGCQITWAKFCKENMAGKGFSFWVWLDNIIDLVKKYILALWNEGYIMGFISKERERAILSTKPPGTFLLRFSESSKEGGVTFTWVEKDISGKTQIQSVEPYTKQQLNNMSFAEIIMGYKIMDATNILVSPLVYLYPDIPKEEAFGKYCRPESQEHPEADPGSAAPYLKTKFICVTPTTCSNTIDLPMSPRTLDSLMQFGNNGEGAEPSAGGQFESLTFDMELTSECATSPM
Description: Tumor tissue was minced, homogenized and first), 50% PEG-400 (added second), 40% Saline (added proteins extracted using high-salt buffer, as described last) then vortexed and sonicated at concentration (10 mg/
C57BL/6 mice were provided in membrane (Millipore, Waltham, MA) and immunoblotted. triplicate, a single dose by body weight via either intra-Membranes were probed with antibody against peritoneal (IP) or oral (PO) route at 10 mg/kg at a volume STAT1 pY701 or STAT3 pY705 total STAT1 or STAT3 of 10 mL/kg and plasma samples collected as shown (Transduction labs, Lexington, KY) and β–actin (Abcam, in the study table below. At the indicated times, 3 mice Cambridge, MA). Membranes were stripped between per time point were euthanized per dose route and then

## O=C(O)CSc1cc(NS(=O)(=O)c2ccc(C(=O)O)cc2)c2ccccc2c1O [Compound C188]
[1]
  IC50: 40 µM
[2]
  IC50: 23.4 µM
[3]
  IC50: 21.9 µM
[4]; mean, read-out: Anchorage dependent growth (MTT) IC50
  IC50: 6.3 ± 0.8 µM
[4]; Figure 4B, read-out: Anchorage Dependent growth IC50, representative experiment
  IC50: 5.7 µM
[5]
  Growth of established UM-SCC-17B xenograft tumors: continued to grow
[6]
  EC50: 0.7 µM
[7]
  MTD at 14 days: 100 mg/kg/day
[8]
  Levels of pSTAT3 in tumors: not reduced significantly

Source: paper PMC5041982, “Small-molecule inhibition of STAT3 in radioresistant head and neck squamous cell carcinoma” (Oncotarget, 2016)
